Blank lines part the entries; values can stand above or below the compound they belong to.
Experiments:
[1] = molecular target: Ephrin type-A receptor 5 (Homo sapiens) (UniProt P54756); assay: Selectivity interaction (Kinase panel (DSF assay)) EUB0001559a EPHA5
[2] = molecular target: Protein arginine N-methyltransferase 3 (Homo sapiens, UniProt O60678); assay: Selectivity interaction (Methyltransferase screen (Scintillation proximity assays)) EUB0000255b PRMT3
[3] = test system: eIF-2-alpha kinase GCN2 (Homo sapiens), Q9P2K8 [S808G]; assay: Selectivity interaction (KinomeScan (DiscoverX)) EUB0001079a EIF2AK4; details: at 1 µM
[4] = molecular target: 5-hydroxytryptamine receptor 7 (Homo sapiens) (UniProt P34969); assay: Selectivity interaction (GPCR panel (PDSP screen)) EUB0001079a HTR7; details: at 10 µM
Sequence of 5-hydroxytryptamine receptor 7 (Homo sapiens) (P34969 whole entry): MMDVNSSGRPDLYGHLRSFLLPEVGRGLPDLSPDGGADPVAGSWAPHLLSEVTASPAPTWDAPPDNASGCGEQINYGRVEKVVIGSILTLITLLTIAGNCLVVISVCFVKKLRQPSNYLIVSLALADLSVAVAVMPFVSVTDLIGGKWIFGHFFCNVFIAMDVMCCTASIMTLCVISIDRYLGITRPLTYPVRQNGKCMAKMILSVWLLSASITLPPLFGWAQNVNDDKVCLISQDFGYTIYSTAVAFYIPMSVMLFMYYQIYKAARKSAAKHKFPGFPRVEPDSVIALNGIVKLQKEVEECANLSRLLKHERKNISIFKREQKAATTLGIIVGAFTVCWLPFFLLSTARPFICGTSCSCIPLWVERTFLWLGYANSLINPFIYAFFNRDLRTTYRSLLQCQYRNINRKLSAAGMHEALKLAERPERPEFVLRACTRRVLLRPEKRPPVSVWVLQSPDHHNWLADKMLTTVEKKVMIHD

[5] = molecular target: T1, Serine/threonine-protein kinase 17A (Homo sapiens) (UniProt Q9UEE5); assay: Selectivity interaction (Kinase panel (DSF assay)) EUB0001558a STK17A
T1 sequence (whole entry): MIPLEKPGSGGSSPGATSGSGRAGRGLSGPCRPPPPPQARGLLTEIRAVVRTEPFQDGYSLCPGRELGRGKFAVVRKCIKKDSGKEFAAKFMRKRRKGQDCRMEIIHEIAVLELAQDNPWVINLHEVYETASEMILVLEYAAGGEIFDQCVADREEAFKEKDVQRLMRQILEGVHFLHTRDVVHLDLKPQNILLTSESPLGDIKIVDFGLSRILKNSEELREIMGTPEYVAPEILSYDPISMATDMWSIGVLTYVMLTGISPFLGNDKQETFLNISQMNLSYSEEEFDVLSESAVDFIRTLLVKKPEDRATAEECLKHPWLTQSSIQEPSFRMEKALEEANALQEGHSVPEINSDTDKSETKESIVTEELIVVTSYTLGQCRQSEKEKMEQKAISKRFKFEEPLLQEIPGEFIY

[6] = molecular target: T2, Cyclin-dependent kinase-like 5 (Homo sapiens) (UniProt O76039); details: at 10 µM
T2 sequence (whole entry): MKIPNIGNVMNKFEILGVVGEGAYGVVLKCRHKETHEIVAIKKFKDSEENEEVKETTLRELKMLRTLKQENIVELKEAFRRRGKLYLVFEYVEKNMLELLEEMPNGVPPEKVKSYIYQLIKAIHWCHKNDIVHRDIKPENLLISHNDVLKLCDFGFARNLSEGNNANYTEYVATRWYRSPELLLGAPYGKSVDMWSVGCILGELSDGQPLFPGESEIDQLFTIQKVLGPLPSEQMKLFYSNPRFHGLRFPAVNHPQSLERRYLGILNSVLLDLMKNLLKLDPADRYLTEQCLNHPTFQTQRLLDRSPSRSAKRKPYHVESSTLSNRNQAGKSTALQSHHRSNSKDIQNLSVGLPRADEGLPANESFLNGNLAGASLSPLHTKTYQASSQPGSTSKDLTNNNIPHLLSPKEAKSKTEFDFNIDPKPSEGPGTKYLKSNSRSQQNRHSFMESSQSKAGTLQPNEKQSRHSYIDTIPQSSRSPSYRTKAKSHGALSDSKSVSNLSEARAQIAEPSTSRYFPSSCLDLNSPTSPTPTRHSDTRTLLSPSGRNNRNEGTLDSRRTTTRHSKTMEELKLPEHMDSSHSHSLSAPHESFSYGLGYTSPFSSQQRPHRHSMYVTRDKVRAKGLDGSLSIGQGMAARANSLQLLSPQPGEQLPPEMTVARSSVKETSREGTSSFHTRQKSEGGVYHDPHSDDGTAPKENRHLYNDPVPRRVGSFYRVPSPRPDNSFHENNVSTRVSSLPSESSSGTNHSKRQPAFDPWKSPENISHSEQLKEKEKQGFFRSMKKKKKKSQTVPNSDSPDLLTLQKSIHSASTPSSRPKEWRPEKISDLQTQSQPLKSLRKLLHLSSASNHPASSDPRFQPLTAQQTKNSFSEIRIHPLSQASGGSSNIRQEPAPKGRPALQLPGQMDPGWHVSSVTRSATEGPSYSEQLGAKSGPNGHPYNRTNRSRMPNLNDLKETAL

[7] = molecular target: Histone-lysine N-methyltransferase, H3 lysine-36 specific (Homo sapiens) (UniProt Q96L73); assay: Selectivity interaction (Transferase panel (protein, RNA, and DNA methyltransferases. and EP300 (acetyltransferase))) EUB0000270b NSD1
Sequence of Histone-lysine N-methyltransferase, H3 lysine-36 specific (Homo sapiens) (Q96L73 whole entry): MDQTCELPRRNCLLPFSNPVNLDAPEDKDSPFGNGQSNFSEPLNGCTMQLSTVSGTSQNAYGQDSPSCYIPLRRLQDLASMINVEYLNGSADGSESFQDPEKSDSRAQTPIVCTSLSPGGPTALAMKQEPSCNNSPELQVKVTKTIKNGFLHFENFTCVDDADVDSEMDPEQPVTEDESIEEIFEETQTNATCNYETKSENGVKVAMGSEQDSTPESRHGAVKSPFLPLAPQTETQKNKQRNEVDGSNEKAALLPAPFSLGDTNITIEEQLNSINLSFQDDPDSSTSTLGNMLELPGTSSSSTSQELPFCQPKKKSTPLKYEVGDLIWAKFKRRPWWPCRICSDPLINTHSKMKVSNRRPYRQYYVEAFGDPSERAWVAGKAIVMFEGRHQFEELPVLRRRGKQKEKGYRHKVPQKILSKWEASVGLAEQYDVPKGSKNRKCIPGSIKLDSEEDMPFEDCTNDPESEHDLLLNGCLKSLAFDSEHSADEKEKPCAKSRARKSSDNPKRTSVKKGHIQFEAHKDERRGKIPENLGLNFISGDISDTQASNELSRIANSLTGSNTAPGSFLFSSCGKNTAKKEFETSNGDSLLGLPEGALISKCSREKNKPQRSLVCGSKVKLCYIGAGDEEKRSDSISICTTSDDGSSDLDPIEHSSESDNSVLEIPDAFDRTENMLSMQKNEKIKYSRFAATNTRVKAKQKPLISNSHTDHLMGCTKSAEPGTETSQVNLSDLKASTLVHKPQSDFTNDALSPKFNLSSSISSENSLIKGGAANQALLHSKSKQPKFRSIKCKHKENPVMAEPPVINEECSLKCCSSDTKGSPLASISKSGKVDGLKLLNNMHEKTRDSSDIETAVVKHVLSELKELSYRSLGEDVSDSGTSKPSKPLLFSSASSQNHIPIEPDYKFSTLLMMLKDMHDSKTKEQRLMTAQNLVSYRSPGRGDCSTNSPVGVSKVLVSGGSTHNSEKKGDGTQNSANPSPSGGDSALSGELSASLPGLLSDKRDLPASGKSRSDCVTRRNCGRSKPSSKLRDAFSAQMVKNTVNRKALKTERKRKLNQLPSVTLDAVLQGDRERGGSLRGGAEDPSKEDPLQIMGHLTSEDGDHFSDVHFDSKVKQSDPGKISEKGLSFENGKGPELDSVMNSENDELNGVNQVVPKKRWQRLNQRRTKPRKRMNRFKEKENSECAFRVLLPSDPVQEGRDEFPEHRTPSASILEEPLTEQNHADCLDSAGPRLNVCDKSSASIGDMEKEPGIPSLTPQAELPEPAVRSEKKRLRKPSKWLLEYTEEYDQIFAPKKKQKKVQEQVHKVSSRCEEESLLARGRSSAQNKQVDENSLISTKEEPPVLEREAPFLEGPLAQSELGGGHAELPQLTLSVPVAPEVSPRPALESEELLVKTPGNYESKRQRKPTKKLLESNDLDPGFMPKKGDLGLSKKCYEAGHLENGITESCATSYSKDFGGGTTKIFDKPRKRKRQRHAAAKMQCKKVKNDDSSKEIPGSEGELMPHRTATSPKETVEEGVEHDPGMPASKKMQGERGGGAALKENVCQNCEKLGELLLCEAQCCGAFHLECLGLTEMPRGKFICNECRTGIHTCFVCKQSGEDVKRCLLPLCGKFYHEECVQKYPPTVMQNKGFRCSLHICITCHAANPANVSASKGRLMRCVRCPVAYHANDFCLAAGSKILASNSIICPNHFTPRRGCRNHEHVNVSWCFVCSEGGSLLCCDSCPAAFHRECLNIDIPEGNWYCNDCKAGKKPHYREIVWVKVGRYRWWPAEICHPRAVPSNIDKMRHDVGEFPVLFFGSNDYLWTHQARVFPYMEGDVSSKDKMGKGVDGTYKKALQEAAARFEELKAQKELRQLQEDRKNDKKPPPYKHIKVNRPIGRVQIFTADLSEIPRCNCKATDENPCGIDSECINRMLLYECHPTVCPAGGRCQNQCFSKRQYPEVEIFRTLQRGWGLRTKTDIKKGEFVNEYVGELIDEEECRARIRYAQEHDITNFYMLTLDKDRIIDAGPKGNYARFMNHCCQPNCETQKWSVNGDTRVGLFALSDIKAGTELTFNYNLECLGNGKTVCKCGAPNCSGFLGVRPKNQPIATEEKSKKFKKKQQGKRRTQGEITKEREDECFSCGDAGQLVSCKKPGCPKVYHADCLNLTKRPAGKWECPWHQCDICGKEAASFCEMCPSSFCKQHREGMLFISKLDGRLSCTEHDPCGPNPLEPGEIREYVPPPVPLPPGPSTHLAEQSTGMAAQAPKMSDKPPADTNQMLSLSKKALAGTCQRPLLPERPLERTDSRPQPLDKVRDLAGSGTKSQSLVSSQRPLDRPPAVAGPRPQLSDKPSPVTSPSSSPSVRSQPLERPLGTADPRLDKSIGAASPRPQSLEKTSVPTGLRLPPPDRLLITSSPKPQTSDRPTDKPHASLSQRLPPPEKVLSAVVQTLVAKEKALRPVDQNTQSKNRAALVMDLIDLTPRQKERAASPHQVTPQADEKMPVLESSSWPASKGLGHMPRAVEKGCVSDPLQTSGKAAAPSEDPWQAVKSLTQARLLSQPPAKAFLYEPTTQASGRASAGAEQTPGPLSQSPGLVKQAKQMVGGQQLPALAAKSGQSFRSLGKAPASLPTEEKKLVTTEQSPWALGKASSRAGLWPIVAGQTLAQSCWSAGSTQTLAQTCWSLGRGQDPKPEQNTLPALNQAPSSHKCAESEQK

[8] = molecular target: T3, Serine/threonine-protein kinase ULK1 (Homo sapiens) (UniProt O75385); assay: Selectivity interaction (KinomeScan (DiscoverX)) EUB0000229b ULK1; details: at 10 µM
T3 sequence (whole entry): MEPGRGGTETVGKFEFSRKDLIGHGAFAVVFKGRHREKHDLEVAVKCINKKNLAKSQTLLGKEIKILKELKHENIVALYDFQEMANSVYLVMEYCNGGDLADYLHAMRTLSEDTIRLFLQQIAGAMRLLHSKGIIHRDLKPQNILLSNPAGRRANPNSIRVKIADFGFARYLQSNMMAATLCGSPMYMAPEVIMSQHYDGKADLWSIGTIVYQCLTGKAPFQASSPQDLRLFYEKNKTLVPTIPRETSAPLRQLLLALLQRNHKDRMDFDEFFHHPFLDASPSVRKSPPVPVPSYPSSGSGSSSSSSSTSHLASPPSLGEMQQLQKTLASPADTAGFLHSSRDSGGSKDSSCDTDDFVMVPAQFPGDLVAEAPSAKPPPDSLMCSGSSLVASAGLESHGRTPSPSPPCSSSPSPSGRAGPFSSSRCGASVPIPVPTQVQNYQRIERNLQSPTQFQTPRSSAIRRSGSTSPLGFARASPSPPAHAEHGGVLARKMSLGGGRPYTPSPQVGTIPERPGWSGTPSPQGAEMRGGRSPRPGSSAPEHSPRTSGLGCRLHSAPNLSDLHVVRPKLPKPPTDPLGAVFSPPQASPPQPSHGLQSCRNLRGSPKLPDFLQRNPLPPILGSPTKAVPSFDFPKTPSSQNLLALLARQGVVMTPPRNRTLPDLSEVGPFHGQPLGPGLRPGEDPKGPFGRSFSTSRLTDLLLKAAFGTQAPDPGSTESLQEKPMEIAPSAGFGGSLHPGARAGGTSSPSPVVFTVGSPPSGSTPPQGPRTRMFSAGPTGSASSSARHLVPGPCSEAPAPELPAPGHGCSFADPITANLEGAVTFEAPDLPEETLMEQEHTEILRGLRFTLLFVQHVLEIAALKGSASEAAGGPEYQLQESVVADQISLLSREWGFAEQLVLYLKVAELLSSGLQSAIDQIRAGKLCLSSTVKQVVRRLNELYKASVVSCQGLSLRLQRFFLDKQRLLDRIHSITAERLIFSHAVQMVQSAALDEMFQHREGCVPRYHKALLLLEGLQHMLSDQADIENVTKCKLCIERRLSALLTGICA

Sequence of Protein arginine N-methyltransferase 3 (O60678 2-531 limits assumed): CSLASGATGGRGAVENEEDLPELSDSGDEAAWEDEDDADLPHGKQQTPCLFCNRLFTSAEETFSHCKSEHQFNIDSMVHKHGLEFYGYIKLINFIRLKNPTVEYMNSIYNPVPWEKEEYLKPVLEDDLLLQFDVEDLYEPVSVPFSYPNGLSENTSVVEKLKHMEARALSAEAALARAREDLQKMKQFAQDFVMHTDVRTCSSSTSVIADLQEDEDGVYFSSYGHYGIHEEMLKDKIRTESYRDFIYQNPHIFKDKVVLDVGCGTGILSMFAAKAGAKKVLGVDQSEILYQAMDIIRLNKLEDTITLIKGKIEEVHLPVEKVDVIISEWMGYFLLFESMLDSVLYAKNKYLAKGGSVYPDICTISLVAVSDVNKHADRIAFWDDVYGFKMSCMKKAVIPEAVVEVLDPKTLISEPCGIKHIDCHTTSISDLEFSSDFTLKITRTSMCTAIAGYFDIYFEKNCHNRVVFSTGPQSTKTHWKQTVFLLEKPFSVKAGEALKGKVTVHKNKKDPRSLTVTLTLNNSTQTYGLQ
Sequence of Ephrin type-A receptor 5 (Homo sapiens) (P54756 whole entry): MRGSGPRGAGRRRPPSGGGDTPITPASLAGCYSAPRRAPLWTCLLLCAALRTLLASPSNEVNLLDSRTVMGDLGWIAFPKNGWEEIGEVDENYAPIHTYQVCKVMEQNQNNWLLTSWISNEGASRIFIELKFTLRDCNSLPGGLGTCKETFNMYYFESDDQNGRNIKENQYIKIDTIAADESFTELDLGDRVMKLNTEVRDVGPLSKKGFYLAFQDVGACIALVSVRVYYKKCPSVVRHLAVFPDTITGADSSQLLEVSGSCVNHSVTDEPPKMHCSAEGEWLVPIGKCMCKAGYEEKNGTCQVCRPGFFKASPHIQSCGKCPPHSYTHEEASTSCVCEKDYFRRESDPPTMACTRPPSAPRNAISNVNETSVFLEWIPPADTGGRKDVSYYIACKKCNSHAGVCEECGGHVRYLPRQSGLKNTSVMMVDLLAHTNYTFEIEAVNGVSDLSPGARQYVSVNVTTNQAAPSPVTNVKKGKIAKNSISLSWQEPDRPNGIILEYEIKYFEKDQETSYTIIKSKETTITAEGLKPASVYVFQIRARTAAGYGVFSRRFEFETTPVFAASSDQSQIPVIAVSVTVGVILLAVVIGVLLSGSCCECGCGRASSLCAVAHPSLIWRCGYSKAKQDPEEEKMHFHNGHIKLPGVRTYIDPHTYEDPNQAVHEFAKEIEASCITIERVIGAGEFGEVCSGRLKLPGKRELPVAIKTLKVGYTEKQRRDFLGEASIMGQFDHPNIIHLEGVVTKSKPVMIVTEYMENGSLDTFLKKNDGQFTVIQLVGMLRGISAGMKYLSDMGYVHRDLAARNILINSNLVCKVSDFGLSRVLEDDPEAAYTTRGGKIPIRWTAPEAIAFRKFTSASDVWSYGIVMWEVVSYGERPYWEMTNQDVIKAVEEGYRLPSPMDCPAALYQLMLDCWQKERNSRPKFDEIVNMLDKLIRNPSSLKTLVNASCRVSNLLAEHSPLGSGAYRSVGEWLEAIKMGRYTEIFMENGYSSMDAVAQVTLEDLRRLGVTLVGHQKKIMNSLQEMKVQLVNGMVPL

dTM [1]: -0.3 K
SMILES: CN(C(=O)c1cnn2cccnc12)c1cc2c(cc1N1CCOCC1)C(=O)N(C[C@@H](F)C(C)(C)O)C2

SMILES: COCCN1CCC(c2cc(CN(C)C(=O)c3cccc(Oc4ccccc4)c3)ccn2)CC1
% activity ([2]; at 1 µM): > 95%
% activity ([2]; at 10 µM): > 90%

SMILES: Nc1cnc(N2CCc3cc(S(=O)(=O)Nc4c(F)cc(Cl)cc4F)cc(N4CCCC4=O)c32)nc1 [TP-020n]
% of control [3]: 100%
% of inhibition [4]: 0.94%

SMILES: CC(C)(O)[C@H](F)CN1Cc2cc(NC(=O)c3cnn4cccnc34)c(N3CCOCC3)cc2C1=O
dTM [5]: 0.9 K

SMILES: Cc1cc([C@@H](C)Nc2ccccc2C(=O)O)c2nc(N3CCOCC3)cc(=O)n2c1 [AZD-6482]
% of control [6]: 74%

% activity ([7]; at 1 µM): > 90%
% activity ([7]; at 10 µM): > 80%
SMILES: Cc1cc(CN)cc(C)c1-c1ncn(C)c1-c1cncn1C

SMILES: COc1cc(N(C)c2ccnc3ccc(C(F)(F)F)cc23)cc(OC)c1OC
% binding [8]: 73%
